The record followed here is patent US20060115815A1 (priority 2002, published 2006).

Series [1] has as its target recombinant HIV-1 protease (Human immunodeficiency virus type 1 group M subtype B, UniProt P04585). Kind of series: biochemical. It is filed as biochemical.
For series [2], the system named is wild-type HIV-1 strain IIIB. The series can be described thus: microbe, parasite or virus in culture. Format: cell-based.
Series [3] concerns mutant HIV-1 with I84V/L90M mutations in the protease gene. Format: cell-based. The conditions noted are these: for EC50: MT-4, 84V90M, read-out: Cell-based assay (MT-4) EC50/nM 84V90M.
The subject of another series is WT. Kind of series: microbe, parasite or virus in culture. Format: cell-based, HIV-1.
In the next series the target is 84V90M (Human immunodeficiency virus type 1 group M subtype B, UniProt P04585, I572V/L578M). The series can be described thus: cell-based. More on the design: species or system HIV-1.
Series [4] has as its system 30N82I88D. The series can be described thus: microbe, parasite or virus in culture. Format: cell-based, HIV-1.
For series [5], the system named is 48V54V82A. Kind of series: microbe, parasite or virus in culture. It is filed as cell-based, HIV-1.
The test system of a further series is 46I50V. Kind of series: microbe, parasite or virus in culture. It is filed as cell-based, HIV-1.
For another series, the system named is WT HIV-1. Kind of series: microbe, parasite or virus in culture. Format: cell-based.
Series [6] deals with 30N82I88D. More on the design: species or system HIV-1. The conditions noted are these: MT-4, 30N82I88D; read-out: Cell-based assay (MT-4) EC50/nM 30N82I88D.
Series [7] concerns 48V54V82A. More on the design: species or system HIV-1. The settings on record: MT-4, 48V54V82A; read-out: Cell-based assay (MT-4) EC50/nM 48V54V82A.
The test system of series [8] is recombinant HIV-1 strains with resistance mutations in the protease gene. The series can be described thus: Cross-resistance profile assay, whole panel of mutant viruses. Format: cell-based.
In series [9] the test system is PBMC in intact human whole blood.
Setting [10] is: Human immunodeficiency virus 1, read-out: Cell-based assay (MT-4) EC50 WT.
Setting [11] is: read-out: Cell-based assay (MT-4) EC50 WT.
Setting [12] is: MT-4, 30N82I88D, read-out: Cell-based assay (MT-4) EC50 30N82I88D.
Where [13] appears, read: MT-4, 48V54V82A, read-out: Cell-based assay (MT-4) EC50 48V54V82A.
Setting [14] is: MT-4, 46I50V, read-out: Cell-based assay (MT-4) EC50 46I50V.
[15] abbreviates: MT-4, WT, read-out: Cell-based assay (MT-4) EC50/nM WT.
Where [16] appears, read: Human immunodeficiency virus 1, read-out: Cell-based assay (MT-4) EC50 30N82I88D.
[17] abbreviates: Human immunodeficiency virus 1, read-out: Cell-based assay (MT-4) EC50 48V54V82A.
Where [18] appears, read: Human immunodeficiency virus 1, read-out: Cell-based assay (MT-4) EC50 46I50V.
The mark [19] stands for this setting: Human immunodeficiency virus 1, read-out: EC50 [nM] WT HIV-1.
[20] abbreviates: fold difference in EC50, mutant vs. wild type.

pEC50, pKi: −log10 of the molar value. Read-outs that look alike come from different tables or passages of the source.

For the compound `Cc1cccc(C)c1OCC(=O)N[C@@H](Cc1ccc(OCP(=O)(Oc2ccccc2)Oc2ccccc2)cc1)[C@H](O)CN(CC(C)C)S(=O)(=O)c1ccc(N)cc1`, the pKi – broadly, the Ki on a negative log10 scale, so that one unit is a factor of ten – in [1] (read-out: Ki) is 9.00 to 10.00. Moreover, the pEC50 (commonly the negative decadic logarithm of the EC50, by convention in mol/L) in series [2] (read-out: EC50) was greater than 7.30. Moreover, in series [3] (I84V/L90M mutant), the I84V/L90M fold change result is listed as “++ (>10 to ≦30)”.
Take `Cc1ccc(C(=O)N[C@@H](Cc2ccc(OCP(=O)(Oc3ccccc3)Oc3ccccc3)cc2)[C@H](O)CN(CC(C)C)S(=O)(=O)c2ccc(N)cc2)cc1O`: in [1] (read-out: Ki), the pKi was 9.00 to 10.00. Also, the pEC50 in series [2] (read-out: EC50) is 6.30 to 7.30. Moreover, the I84V/L90M fold change entry in series [3] (I84V/L90M mutant) is “+ (>3 to ≦10)”.
On to `CCOP(=O)(CCCNC(=O)c1cccc(CN2C(=O)N(Cc3ccc4[nH]nc(N)c4c3)C(Cc3ccccc3)C(O)C(O)C2Cc2ccccc2)c1)OCC` (centres unmarked), for which the pEC50 in the series on WT (setting [10]) is 6.73; at 84V90M, 6.32.
On to `CCOP(=O)(CCCNC(=O)c1cccc(CN2C(=O)N(Cc3ccc4[nH]nc(N)c4c3)[C@H](Cc3ccccc3)[C@H](O)[C@@H](O)[C@H]2Cc2ccccc2)c1)OCC`, for which the pEC50 is 6.73 in the series with WT (setting [11]); 6.32 on 84V90M (MT-4, 84V90M, read-out: Cell-based assay (MT-4) EC50 84V90M); 6.18 in the series on 30N82I88D [4] (setting [12]); 6.62 in the series with 48V54V82A [5] (setting [13]); 6.50 in the series on 46I50V (setting [14]).
Take `COc1ccc(CN2C(=O)N(Cc3ccc(OCc4ccccc4)cc3)[C@H](Cc3ccccc3)[C@H](O)[C@@H](O)[C@H]2Cc2ccccc2)cc1C#N`: in series [1] (read-out: Enzymatic assay Ki), the pKi is less than 8.30. Further, the EC50 in the series with WT HIV-1 (setting [15]) amounted to 5950 nM.
With `O=C1N(Cc2ccccc2)[C@H](Cc2ccccc2)[C@H](O)[C@@H](O)[C@@H](Cc2ccc(OCP(=O)(OCc3ccccc3)OCc3ccccc3)cc2)N1Cc1ccccc1`, the EC50 in [3] was greater than 6000 nM; with WT HIV-1 (setting [15]), 1770 nM; in the series with 30N82I88D [6], 3140 nM; with 48V54V82A [7] it was greater than 6000 nM.
In the case of `CCOP(=O)(COc1ccc(CC2C(O)C(O)C(Cc3ccccc3)N(Cc3ccccc3)C(=O)N2Cc2ccccc2)cc1)OCC` (centres unmarked), in the series with WT HIV-1 (Human immunodeficiency virus 1, read-out: Cell-based assay (MT-4) EC50/nM WT), the EC50 amounted to 107 nM.
Regarding `Nc1n[nH]c2ccc(CN3C(=O)N(Cc4cccc(OCP(=O)(OCc5ccccc5)OCc5ccccc5)c4)C(Cc4ccccc4)C(O)C(O)C3Cc3ccccc3)cc12` (centres unmarked), the pEC50 was 6.05 in the series with WT (setting [10]); less than 5.22 at 84V90M; 6.15 in the series with 30N82I88D [4] (setting [16]); 5.59 in the series with 48V54V82A [5] (setting [17]); 5.51 with 46I50V (setting [18]).
For `CCOP(=O)(COc1cccc(CN2C(=O)N(Cc3ccc4[nH]nc(N)c4c3)C(Cc3ccccc3)C(O)C(O)C2Cc2ccccc2)c1)OCC` (centres unmarked), in that order: 6.18, 5.52, 7.03, 6.29 and 6.07.
For `Nc1n[nH]c2ccc(CN3C(=O)N(Cc4ccc(OCP(=O)(OCc5ccccc5)OCc5ccccc5)cc4)C(Cc4ccccc4)C(O)C(O)C3Cc3ccccc3)cc12` (centres unmarked), the pEC50 in the series with WT (setting [10]) was 5.57; at 84V90M it was 5.30; in the series on 30N82I88D [4] (setting [16]), 5.67.
Regarding `CCOP(=O)(COc1ccc(CN2C(=O)N(Cc3ccc4[nH]nc(N)c4c3)C(Cc3ccccc3)C(O)C(O)C2Cc2ccccc2)cc1)OCC` (centres unmarked), the pEC50 in the series with WT (setting [10]) is 5.61; on 84V90M, less than 5.22; in the series with 30N82I88D [4] (setting [16]), 5.87.
For `COc1ccc(S(=O)(=O)N(CC(C)C)C[C@@H](O)[C@H](Cc2ccccc2)NC(=O)O[C@H]2CO[C@H]3OCC[C@H]32)cc1` [94-003, reference compound], the EC50 in the series on WT HIV-1 (setting [19]) worked out at 0.5 nM. The “Total No. of Resistant Viruses” value in series [8] ({}) turned out to be 3.
With `CCOP(=O)(COCCCCN1C(=O)N(Cc2ccc3[nH]nc(N)c3c2)C(Cc2ccccc2)C(O)C(O)C1Cc1ccccc1)OCC` (centres unmarked) [CH2OCH2PO3Et2], on 84V90M, the pEC50 was 5.48.
Compound `Nc1n[nH]c2ccc(CN3C(=O)N(CCCCOCP(=O)(O)O)C(Cc4ccccc4)C(O)C(O)C3Cc3ccccc3)cc12` (centres unmarked) [CH2OCH2PO3H2] showed a pEC50 at 84V90M of less than 5.37.
As for `CCOC(=O)C(C)NP(=O)(COc1ccc(CC(NC(=O)OC2COC3OCCC23)C(O)CN(CC(C)C)S(=O)(=O)c2ccc(OC)cc2)cc1)Oc1ccccc1` (centres unmarked) [GS-16571], the “Total No. of Resistant Viruses” value in [8] (of 11 mutant viruses, resistance = 5-fold and higher change in EC50 relative to wild-type) was 0. In series [9], the “Intracellular Acid Metabolite Concentration” value is 319 ± 112 µM; the “Intracellular Prodrug Concentration” value was found to be 137 ± 62 µM; the “Intracellular Prodrug and Metabolites Concentration, uM: Acid Metabolite” value was determined as 319 ± 112 µM; the “Intracellular Prodrug and Metabolites Concentration: Prodrug” value is 137 ± 62 µM. In addition, the “Intracellular Prodrug and Metabolites Concentration: Total” value in series [9] came out at 432 ± 208 µM.
For `CC(C)(C)NC(=O)[C@@H]1CN(Cc2cccnc2)CCN1C[C@@H](O)C[C@@H](Cc1ccccc1)C(=O)N[C@H]1c2ccccc2C[C@H]1O` [Indinavir, reference compound], in the series with WT HIV-1 (setting [19]), the EC50 was determined as 15 nM. Also, the “Total No. of Resistant Viruses” value in series [8] ({}) amounted to 8.
`CCOP(=O)(COCCCN1C(=O)N(Cc2ccc3[nH]nc(N)c3c2)C(Cc2ccccc2)C(O)C(O)C1Cc1ccccc1)OCC` (centres unmarked) [OCH2PO3Et2] gave a pEC50 on 84V90M of less than 5.22.
Still for that read-out and setting: then `CCOP(=O)(COc1ccc(CC2C(O)C(O)C(Cc3ccc(OC)cc3)N(Cc3cccc(N)c3)C(=O)N2Cc2cccc(N)c2)cc1)OCC` (centres unmarked) [OCH3, Ph-mNH2, OCH2PO3Et2], with 6.27.
Take `CCOP(=O)(COc1ccc(CC2C(O)C(O)C(Cc3ccc(O)cc3)N(Cc3ccc(O)cc3)C(=O)N2Cc2ccc(O)cc2)cc1)OCC` (centres unmarked) [OH, Ph-pOH, OCH2PO3Et2]: the pEC50 in the series with WT (setting [11]) was 6.55; with 30N82I88D [4] (setting [12]), 6.68; with 48V54V82A [5] (setting [13]) it was 6.01; in the series with 46I50V (setting [14]), 5.96.
As to `O=C1N(Cc2ccccc2)[C@H](Cc2ccccc2)[C@H](O)[C@@H](O)[C@@H](Cc2ccc(O)cc2)N1Cc1ccccc1` [R=H, R1=Ph, R2=OH], the EC50 in [3] was greater than 6000 nM; with WT HIV-1 (setting [15]), 1260 nM; with 30N82I88D [6] it was 2950 nM; in the series with 48V54V82A [7], greater than 6000 nM.
Consider `CC(C)c1nc(CN(C)C(=O)N[C@H](C(=O)N[C@@H](Cc2ccccc2)C[C@H](O)[C@H](Cc2ccccc2)NC(=O)OCc2cncs2)C(C)C)cs1` [Ritonavir, reference compound], for which the EC50 with WT HIV-1 (setting [19]) turned out to be 15 nM. Moreover, the “Total No. of Resistant Viruses” value in series [8] ({}) is 10.
For `CC(C)(C)NC(=O)[C@@H]1C[C@@H]2CCCC[C@@H]2CN1C[C@@H](O)[C@H](Cc1ccccc1)NC(=O)[C@H](CC(N)=O)NC(=O)c1ccc2ccccc2n1` [Saquinavir, reference compound], in that order: 4 nM and 4.
In the case of `CCOP(=O)(Cc1ccc(CC(NC(=O)OC2COC3OCCC23)C(O)CN(CC(C)C)S(=O)(=O)c2ccc(OC)cc2)cc1)OCC` (centres unmarked) [drawing 654 R1=OE R2=OE], the pKi in [1] (read-out: Ki) was greater than 11.00. Also, the pEC50 in series [2] (read-out: EC50) was greater than 7.30. Also, the I84V/L90M fold change result in series [3] (setting [20]) was “+ (>3 to ≦10)”.
With `CCOC(=O)C(C)OP(=O)(CCN(C)Cc1ccc(CC(NC(=O)OC2COC3OCCC23)C(O)CN(CC(C)C)S(=O)(=O)c2ccc(OC)cc2)cc1)Oc1ccccc1` (centres unmarked) [drawing 663 R1=Ph R2=Lac-Et], the Ki (in general, the dissociation constant of the complex between target and ligand, obtained from inhibition or displacement) in [1] (Ki (pM), class symbols, Table 10) was 100 to 1000 pM. The compound further gave a negative logarithm of the EC50 (pEC50) in [2] (Human immunodeficiency virus 1, IIIB, MT2, class symbols, Table 10) of 6.30 to 7.30. Also, in series [3] (setting [20]), the I84V/L90M fold change result is on record as “+ (>3 to ≦10)”.
For `CCCCOC(=O)C(C)OP(=O)(COc1ccc(C[C@H](NC(=O)O[C@H]2CO[C@H]3OCC[C@H]32)[C@H](O)CN(CC(C)C)S(=O)(=O)c2cccc(N)c2)cc1)Oc1ccccc1` (some centres unmarked) [drawing 763], in series [1] (read-out: Ki), the negative logarithm of the Ki (pKi) was 10.00 to 11.00. The pEC50 in series [2] (read-out: EC50) is 6.30 to 7.30.
With `Nc1n[nH]c2ccc(CN3C(=O)N(Cc4cccc(OCP(=O)(O)Oc5ccccc5)c4)C(Cc4ccccc4)C(O)C(O)C3Cc3ccccc3)cc12` (centres unmarked) [m-OCH2PO3HPh], the pEC50 on 84V90M was less than 5.22.
On 84V90M, `Nc1n[nH]c2ccc(CN3C(=O)N(Cc4cccc(OCP(=O)(Oc5ccccc5)Oc5ccccc5)c4)C(Cc4ccccc4)C(O)C(O)C3Cc3ccccc3)cc12` (centres unmarked) [m-OCH2PO3Ph2] had a negative logarithm of the EC50 (pEC50) of less than 5.22.
As for `Nc1n[nH]c2ccc(CN3C(=O)N(Cc4cccc(O)c4)C(Cc4ccccc4)C(O)C(O)C3Cc3ccccc3)cc12` (centres unmarked) [m-OH], the pEC50 with WT (setting [10]) is 6.82; on 84V90M, 6.32; with 30N82I88D [4] (setting [16]), 6.60; with 48V54V82A [5] (setting [17]), 7.08; with 46I50V (setting [18]), 6.98.
